Test results as given in patent US10357431B2, “Process for the preparation of a pharmaceutical composition comprising a low soluble pharmaceutically active ingredient” (Lek Pharmaceuticals d.d., priority 2010, dated 2019).
Read-outs that look alike come from different tables or passages of the source.

Assays:
[1] = cited from earlier work
[2] = Particle size distribution of ezetimibe (laser diffraction, e.g. Malvern); assay type: physicochemical
Source text: In a particularly exemplified embodiment according to the present invention, the particle size distribution d(0.5) that is present after step (b) and prior to step (c), after step (c) and prior to step (d), and/or after step (d), corresponds essentially to or is smaller than the primary particle size distribution d(0.5) of the API that is used for providing the suspension of step (a). This (further) contributes to a further improved pharmaceutical composition or dosage form, respectively, as e.g. the dissolution profile and controllability are further enhanced. In general, the particle size distribution of a powder, or granular material, or particles e.g. dispersed in fluid, is a list of values or a mathematical function that defines the relative amounts of particles present, sorted according to size. The nomenclature describing the particle size distribution is herein referred to as “d(0.5)”. For example, a d(0.5) of 5 μm means that 50% (by volume) of the particles have a size less than or equal to 5 μm, as tested by any conventional method such as laser diffraction method (e.g. laser diffraction Malvern). When measuring the particle size distribution by laser diffraction Malvern, an appropriate amount of sample (usually a few drops of suspension) is put into a gently mixing chamber filled with water. From this chamber, the sample continuously flows through a measuring chamber and the particle size distribution is determined by laser diffraction. Within the meaning of the present invention, the term “particle size distribution d(0.5) corresponds essentially to or is smaller than” denotes that (i) the particle size distribution d(0.5) of the primary particles when measured after deagglomeration, i.e. after the high energy input treatment has been applied to the suspension containing the API particles, essentially corresponds to the particle size distribution d(0.5) of the primary particles that were used for providing the suspension of step (a); or (ii), alternatively, it denotes that the particle size distribution d(0.5) when measured after deagglomeration is smaller than the particle size distribution d(0.5) of the primary particles that were used for providing the suspension of step (a).
The particle size distribution d(0.5) of the primary API particles used for providing the suspension of step (a) in (A), (B) and (C) can be assessed by any method that is known to a person skilled in the art, such as by using laser diffraction method (e.g. Malvern Mastersizer, see above). As described elsewhere herein, said primary API particles may be present deagglomerated, however said particles may also be present in an agglomerated state. In the latter case, it is also possible to determine the particle size distribution d(0.5) by laser diffraction. If appropriate, it is preferred that the method for carrying out the first measurement corresponds to the method used for carrying out the second measurement.
The method according to the present invention is particularly useful for processing API particles having a particle size distribution d(0.5) that is relatively small, e.g. a particle size distribution d(0.5) where agglomeration is generated (critical particle size/particle size distribution). The critical particle size/particle size distribution for a selected API is known to a person skilled in the art. Further, said size/size distribution can be determined by any suitable method that is known to a person skilled in the art, such as by using SEM or laser diffraction. Usually SEM or more preferably disintegrated tablet suspension is recorded under a visual microscope and is processed with particle recognition software to obtain an estimation of particle size distribution. On SEM pictures, eventually occurring agglomerates are also visible. When using laser diffraction, a suspension of the API is transferred to the dispersing chamber containing water. […]

[3] = Example 3, Table 1, particle size after deagglomeration (suspension passed through ball mill)
[4] = Example 3, Table 1, starting particle size
[5] = Example 4, Table 2, particle size after deagglomeration (high energy rotor-stator mixer)
[6] = Example 4, Table 2, starting particle size
[7] = Example 6, Table 3, particle size after milling (rotor-stator mixer, then ball mill)
[8] = Example 6, Table 3, starting particle size
[9] = Example 7, Table 4, particle size after milling (rotor-stator mixer, then ball mill)
[10] = Example 7, Table 4, starting particle size

size below which 50% of micronized ezetimibe particles were ([2]; Comparative Example 5, micronized starting ezetimibe): 3.9 micrometers | D(0.1) [2, 3]: 0.84 μm | D(0.5) [2, 3]: 2.98 μm | D(0.9) [2, 3]: 6.28 μm | D(0.1) [2, 4]: 0.30 μm | D(0.5) [2, 4]: 2.97 μm | D(0.9) [2, 4]: 6.87 μm | change of particle size distribution d(0.5) ([2]; Example 3, suspension passed through a ball mill): remained essentially unchanged | D(0.1) [2, 5]: 0.83 μm | D(0.5) [2, 5]: 2.54 μm | D(0.9) [2, 5]: 5.03 μm | D(0.1) [2, 6]: 0.30 μm | D(0.5) [2, 6]: 2.97 μm | D(0.9) [2, 6]: 6.87 μm | change of particle size distribution d(0.5) ([2]; Example 4, suspension mixed with high energy rotor-stator mixer): remained unchanged | D(0.1) [2, 7]: 0.24 μm | D(0.5) [2, 7]: 1.11 μm | D(0.9) [2, 7]: 4.35 μm | D(0.1) [2, 8]: 0.82 μm | D(0.5) [2, 8]: 3.29 μm | D(0.9) [2, 8]: 6.49 μm | D(0.1) [2, 9]: 0.63 μm | D(0.5) [2, 9]: 1.99 μm | D(0.9) [2, 9]: 5.49 μm | D(0.1) [2, 10]: 0.83 μm | D(0.5) [2, 10]: 2.76 μm | D(0.9) [2, 10]: 5.19 μm
Compound: O=C1[C@H](CC[C@H](O)c2ccc(F)cc2)[C@@H](c2ccc(O)cc2)N1c1ccc(F)cc1 [ezetimibe]
solubility ([1]; in ethanol, methanol, and acetone): freely to very soluble | solubility ([1]; in water): particularly poorly soluble
